According to US10251395B2, “Substituted furano-/thienocycloalkylamino-2-pyrimidine derivatives and use thereof for controlling undesired plant growth” (Bayer CropScience Aktiengesellschaft, priority 2015, dated 2019):

What was measured:
logP (HCOOH) = format: physicochemical; conditions: HCOOH
Text: Table 2 (physicochemical characterization of selected synthesis examples)

Setaria viridis [1] = assay: Post-emergence herbicidal effect; format: in vivo; conditions: assessed visually after about 3 weeks vs untreated controls
In short: (§1)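 Ratings are visual percentages taken around 3 weeks after treatment, compared with untreated plants. Treatment consisted of an aqueous spray of WP or EC formulations, with 0.2% wetting agent, onto one-leaf-stage weeds raised from seed in sandy loam.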

Polygonum convolvulus [2] = assay: Post-emergence herbicidal effect; format: in vivo; conditions: assessed visually after about 3 weeks vs untreated controls
In short: as §1

Abutilon theophrasti [3] = assay: Post-emergence herbicidal effect; format: in vivo; conditions: assessed visually after about 3 weeks vs untreated controls
In short: as §1

Amaranthus retroflexus [4] = assay: Post-emergence herbicidal effect; format: in vivo; conditions: assessed visually after about 3 weeks vs untreated controls
In short: as §1

Veronica persica [5] = assay: Post-emergence herbicidal effect; format: in vivo; conditions: assessed visually after about 3 weeks vs untreated controls
In short: as §1

Echinochloa crus-galli [6] = assay: Post-emergence herbicidal effect; format: in vivo; conditions: assessed visually after about 3 weeks vs untreated controls
In short: as §1

Alopecurus myosuroides [7] = assay: Post-emergence herbicidal effect; format: in vivo; conditions: assessed visually after about 3 weeks vs untreated controls
In short: as §1

Ipomoea purpurea [8] = assay: Post-emergence herbicidal effect; format: in vivo; conditions: assessed visually after about 3 weeks vs untreated controls
In short: as §1

Lolium multiflorum [9] = assay: Post-emergence herbicidal effect; format: in vivo; conditions: assessed visually after about 3 weeks vs untreated controls
In short: as §1

Stellaria media [10] = assay: Post-emergence herbicidal effect; format: in vivo; conditions: assessed visually after about 3 weeks vs untreated controls
In short: as §1

Viola tricolor [11] = assay: Post-emergence herbicidal effect; format: in vivo; conditions: assessed visually after about 3 weeks vs untreated controls
In short: as §1

Avena fatua [12] = assay: Post-emergence herbicidal effect; format: in vivo; conditions: 320 g/ha, assessed visually after about 3 weeks vs untreated controls
In short: as §1

Setaria viridis [13] = assay: Pre-emergence herbicidal effect; format: in vivo; conditions: scored visually after 3 weeks
In short: (§2)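 Seeds sown in sandy loam in wood-fiber pots and covered with soil; WP or EC formulations applied to the soil surface as aqueous suspension or emulsion at 600 to 800 L/ha water with 0.2% wetting agent. Greenhouse, 3 weeks; damage scored visually versus untreated controls (100% = plants died, 0% = like control).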

Polygonum convolvulus [14] = assay: Pre-emergence herbicidal effect; format: in vivo; conditions: scored visually after 3 weeks
In short: as §2

Abutilon theophrasti [15] = assay: Pre-emergence herbicidal effect; format: in vivo; conditions: scored visually after 3 weeks
In short: as §2

Amaranthus retroflexus [16] = assay: Pre-emergence herbicidal effect; format: in vivo; conditions: scored visually after 3 weeks
In short: as §2

Veronica persica [17] = assay: Pre-emergence herbicidal effect; format: in vivo; conditions: scored visually after 3 weeks
In short: as §2

Echinochloa crus-galli [18] = assay: Pre-emergence herbicidal effect; format: in vivo; conditions: scored visually after 3 weeks
In short: as §2

Alopecurus myosuroides [19] = assay: Pre-emergence herbicidal effect; format: in vivo; conditions: scored visually after 3 weeks
In short: as §2

Ipomoea purpurea [20] = assay: Pre-emergence herbicidal effect; format: in vivo; conditions: scored visually after 3 weeks
In short: as §2

Lolium multiflorum [21] = assay: Pre-emergence herbicidal effect; format: in vivo; conditions: scored visually after 3 weeks
In short: as §2

Stellaria media [22] = assay: Pre-emergence herbicidal effect; format: in vivo; conditions: scored visually after 3 weeks
In short: as §2

Viola tricolor [23] = assay: Pre-emergence herbicidal effect; format: in vivo; conditions: scored visually after 3 weeks
In short: as §2

Matricaria inodora [24] = assay: Pre-emergence herbicidal effect; format: in vivo; conditions: scored visually after 3 weeks
In short: as §2

Matricaria inodora [25] = assay: Post-emergence herbicidal effect; format: in vivo; conditions: assessed visually after about 3 weeks vs untreated controls
In short: as §1

Avena fatua [26] = assay: Pre-emergence herbicidal effect; format: in vivo; conditions: Dosage 320 g/ha, scored visually after 3 weeks
In short: as §2

Nc1nc(N[C@@H]2CCCc3sccc32)ncc1C(F)(F)F [compound 46]
logP (HCOOH) (logP (HCOOH)): oily; logP (HCOOH): 1.91; 1H NMR (CDCl3, 400 MHZ, δ in ppm): 1.80-1.95 (m, | post-emergence efficacy SETVI (Setaria viridis [1]; 80 g/ha): 90% | post-emergence efficacy SETVI (Setaria viridis [1]; 320 g/ha): 90% | post-emergence efficacy POLCO (Polygonum convolvulus [2]; 80 g/ha): 90% | post-emergence efficacy POLCO (Polygonum convolvulus [2]; 320 g/ha): 90% | post-emergence efficacy ABUTH (Abutilon theophrasti [3]; 320 g/ha): 40% | post-emergence efficacy AMARE (Amaranthus retroflexus [4]; 80 g/ha): 100% | post-emergence efficacy AMARE (Amaranthus retroflexus [4]; 320 g/ha): 100% | post-emergence efficacy VERPE (Veronica persica [5]; 80 g/ha): 80% | post-emergence efficacy VERPE (Veronica persica [5]; 320 g/ha): 100% | post-emergence efficacy ECHCG (Echinochloa crus-galli [6]; 80 g/ha): 100% | post-emergence efficacy ECHCG (Echinochloa crus-galli [6]; 320 g/ha): 100% | post-emergence efficacy ALOMY (Alopecurus myosuroides [7]; 80 g/ha): 90% | post-emergence efficacy ALOMY (Alopecurus myosuroides [7]; 320 g/ha): 100% | post-emergence efficacy PHBPU (Ipomoea purpurea [8]; 320 g/ha): 80% | post-emergence efficacy LOLMU (Lolium multiflorum [9]; 80 g/ha): 80% | post-emergence efficacy LOLMU (Lolium multiflorum [9]; 320 g/ha): 100% | post-emergence efficacy STEME (Stellaria media [10]; 80 g/ha): 100% | post-emergence efficacy STEME (Stellaria media [10]; 320 g/ha): 100% | post-emergence efficacy VIOTR (Viola tricolor [11]; 80 g/ha): 80% | post-emergence efficacy VIOTR (Viola tricolor [11]; 320 g/ha): 100% | post-emergence efficacy AVEFA (Avena fatua [12]): 80% | SETVI pre-emergence efficacy (herbicidal activity) (Setaria viridis [13]; Dosage 80 g/ha): 100% | SETVI pre-emergence efficacy (herbicidal activity) (Setaria viridis [13]; Dosage 320 g/ha): 100% | POLCO pre-emergence efficacy (herbicidal activity) (Polygonum convolvulus [14]; Dosage 80 g/ha): 90% | POLCO pre-emergence efficacy (herbicidal activity) (Polygonum convolvulus [14]; Dosage 320 g/ha): 100% | ABUTH pre-emergence efficacy (herbicidal activity) (Abutilon theophrasti [15]; Dosage 320 g/ha): 80% | AMARE pre-emergence efficacy (herbicidal activity) (Amaranthus retroflexus [16]; Dosage 80 g/ha): 100% | AMARE pre-emergence efficacy (herbicidal activity) (Amaranthus retroflexus [16]; Dosage 320 g/ha): 100% | VERPE pre-emergence efficacy (herbicidal activity) (Veronica persica [17]; Dosage 80 g/ha): 100% | VERPE pre-emergence efficacy (herbicidal activity) (Veronica persica [17]; Dosage 320 g/ha): 100% | ECHCG pre-emergence efficacy (herbicidal activity) (Echinochloa crus-galli [18]; Dosage 80 g/ha): 100% | ECHCG pre-emergence efficacy (herbicidal activity) (Echinochloa crus-galli [18]; Dosage 320 g/ha): 100% | ALOMY pre-emergence efficacy (herbicidal activity) (Alopecurus myosuroides [19]; Dosage 80 g/ha): 100% | ALOMY pre-emergence efficacy (herbicidal activity) (Alopecurus myosuroides [19]; Dosage 320 g/ha): 100% | PHBPU pre-emergence efficacy (herbicidal activity) (Ipomoea purpurea [20]; Dosage 320 g/ha): 100% | LOLMU pre-emergence efficacy (herbicidal activity) (Lolium multiflorum [21]; Dosage 80 g/ha): 80% | LOLMU pre-emergence efficacy (herbicidal activity) (Lolium multiflorum [21]; Dosage 320 g/ha): 100% | STEME pre-emergence efficacy (herbicidal activity) (Stellaria media [22]; Dosage 80 g/ha): 100% | STEME pre-emergence efficacy (herbicidal activity) (Stellaria media [22]; Dosage 320 g/ha): 100% | VIOTR pre-emergence efficacy (herbicidal activity) (Viola tricolor [23]; Dosage 80 g/ha): 100% | VIOTR pre-emergence efficacy (herbicidal activity) (Viola tricolor [23]; Dosage 320 g/ha): 100% | MATIN pre-emergence efficacy (herbicidal activity) (Matricaria inodora [24]; Dosage 80 g/ha): 100% | MATIN pre-emergence efficacy (herbicidal activity) (Matricaria inodora [24]; Dosage 320 g/ha): 100%

CC(=O)c1cnc(NC2CCCc3sc(C)cc32)nc1N (centres unmarked) [compound 283]
post-emergence efficacy SETVI (Setaria viridis [1]; 80 g/ha): 50% | post-emergence efficacy SETVI (Setaria viridis [1]; 320 g/ha): 90% | post-emergence efficacy POLCO (Polygonum convolvulus [2]; 320 g/ha): 70% | post-emergence efficacy ABUTH (Abutilon theophrasti [3]; 80 g/ha): 90% | post-emergence efficacy ABUTH (Abutilon theophrasti [3]; 320 g/ha): 90% | post-emergence efficacy AMARE (Amaranthus retroflexus [4]; 80 g/ha): 90% | post-emergence efficacy AMARE (Amaranthus retroflexus [4]; 320 g/ha): 100% | post-emergence efficacy VERPE (Veronica persica [5]; 320 g/ha): 100% | post-emergence efficacy ECHCG (Echinochloa crus-galli [6]; 80 g/ha): 80% | post-emergence efficacy ECHCG (Echinochloa crus-galli [6]; 320 g/ha): 100% | post-emergence efficacy ALOMY (Alopecurus myosuroides [7]; 320 g/ha): 90% | post-emergence efficacy PHBPU (Ipomoea purpurea [8]; 80 g/ha): 80% | post-emergence efficacy PHBPU (Ipomoea purpurea [8]; 320 g/ha): 90% | post-emergence efficacy LOLMU (Lolium multiflorum [9]; 320 g/ha): 100% | post-emergence efficacy STEME (Stellaria media [10]; 80 g/ha): 100% | post-emergence efficacy STEME (Stellaria media [10]; 320 g/ha): 100% | post-emergence efficacy VIOTR (Viola tricolor [11]; 80 g/ha): 90% | post-emergence efficacy VIOTR (Viola tricolor [11]; 320 g/ha): 100% | post-emergence efficacy MATIN (Matricaria inodora [25]; 80 g/ha): 90% | post-emergence efficacy MATIN (Matricaria inodora [25]; 320 g/ha): 90% | post-emergence efficacy AVEFA (Avena fatua [12]): 80% | SETVI pre-emergence efficacy (herbicidal activity) (Setaria viridis [13]; Dosage 80 g/ha): 100% | SETVI pre-emergence efficacy (herbicidal activity) (Setaria viridis [13]; Dosage 320 g/ha): 100% | POLCO pre-emergence efficacy (herbicidal activity) (Polygonum convolvulus [14]; Dosage 80 g/ha): 100% | POLCO pre-emergence efficacy (herbicidal activity) (Polygonum convolvulus [14]; Dosage 320 g/ha): 100% | ABUTH pre-emergence efficacy (herbicidal activity) (Abutilon theophrasti [15]; Dosage 80 g/ha): 90% | ABUTH pre-emergence efficacy (herbicidal activity) (Abutilon theophrasti [15]; Dosage 320 g/ha): 100% | AMARE pre-emergence efficacy (herbicidal activity) (Amaranthus retroflexus [16]; Dosage 80 g/ha): 100% | AMARE pre-emergence efficacy (herbicidal activity) (Amaranthus retroflexus [16]; Dosage 320 g/ha): 100% | VERPE pre-emergence efficacy (herbicidal activity) (Veronica persica [17]; Dosage 320 g/ha): 100% | ECHCG pre-emergence efficacy (herbicidal activity) (Echinochloa crus-galli [18]; Dosage 80 g/ha): 100% | ECHCG pre-emergence efficacy (herbicidal activity) (Echinochloa crus-galli [18]; Dosage 320 g/ha): 100% | ALOMY pre-emergence efficacy (herbicidal activity) (Alopecurus myosuroides [19]; Dosage 80 g/ha): 80% | ALOMY pre-emergence efficacy (herbicidal activity) (Alopecurus myosuroides [19]; Dosage 320 g/ha): 100% | PHBPU pre-emergence efficacy (herbicidal activity) (Ipomoea purpurea [20]; Dosage 80 g/ha): 60% | PHBPU pre-emergence efficacy (herbicidal activity) (Ipomoea purpurea [20]; Dosage 320 g/ha): 100% | LOLMU pre-emergence efficacy (herbicidal activity) (Lolium multiflorum [21]; Dosage 80 g/ha): 100% | LOLMU pre-emergence efficacy (herbicidal activity) (Lolium multiflorum [21]; Dosage 320 g/ha): 100% | STEME pre-emergence efficacy (herbicidal activity) (Stellaria media [22]; Dosage 80 g/ha): 100% | STEME pre-emergence efficacy (herbicidal activity) (Stellaria media [22]; Dosage 320 g/ha): 100% | VIOTR pre-emergence efficacy (herbicidal activity) (Viola tricolor [23]; Dosage 80 g/ha): 100% | VIOTR pre-emergence efficacy (herbicidal activity) (Viola tricolor [23]; Dosage 320 g/ha): 100% | MATIN pre-emergence efficacy (herbicidal activity) (Matricaria inodora [24]; Dosage 80 g/ha): 100% | MATIN pre-emergence efficacy (herbicidal activity) (Matricaria inodora [24]; Dosage 320 g/ha): 100% | AVEFA pre-emergence efficacy (herbicidal activity) (Avena fatua [26]): 80%
